system: Plasmodium falciparum; assay: GSK_TCMDC: Inhibition of Plasmodium falciparum 3D7 in whole erythrocytes, using parasite LDH activity as an index of growth.; type: functional, organism-based; details: Plasmodium falciparum, 3D7

Row | Compound | XC50
1 | COc1ccc(Nc2nc(=Nc3ccccc3)nc(NN=Cc3cc(Cl)ccc3O)[nH]2)cc1 | 647 nM
2 | O=C(Nc1cccc(CN2CCCN(Cc3ccsc3)CC2)c1)c1cc2ccccc2s1 | 758 nM
3 | NC1=NC(c2ccccc2)N(c2ccccc2)C(N)=N1 (stereo not given) | 294 nM
4 | CN1CCN(c2ccnc3ccc(NC(=O)Nc4ccc(Cl)c(Cl)c4)cc23)CC1 | 876 nM
5 | Nc1cccc(-c2ccc3ccnc(N)c3c2)c1 | 796 nM
6 | Cc1cc(C2CCN(CCCCNC(=O)c3ccc(NC(=O)c4ccc(Cl)cc4)cc3)CC2)c(C)cc1OCc1cccnc1 | 603 nM
7 | COc1cc2nc(N[C@@H](CO)c3ccccc3)nc(NCc3ccccc3)c2cc1OC | 657 nM
8 | Cc1ccccc1NC(=S)NC1CCN(CCCCCNC(=O)/C=C/c2ccc(Cl)c(Cl)c2)CC1 | 795 nM
9 | COc1cc2ccccc2c(CNCCCCCCNCc2c(OC)c(OC)cc3ccccc23)c1OC | 1110 nM
10 | O=C(/C=C/c1ccc(CNCCN2CCOCC2)cc1)NCCc1ccccc1 | 864 nM
11 | COc1ccccc1COc1c(C)nc(N)nc1N | 706 nM
12 | Fc1ccc(Nc2ccnc3cc(-c4ccc(CNCCN5CCOCC5)o4)ccc23)c(Cl)c1 | 186 nM
13 | COc1ccc2c(c1)[nH]c1c(/C=C/c3ccc([N+](=O)[O-])cc3)nccc12 | 858 nM
14 | COc1ccc2c(c1)CC(C)(C)NC2CCCCCCCCC1NC(C)(C)Cc2cc(OC)ccc21 (stereo not given) | 1300 nM
15 | O=C(Nc1cccc([N+](=O)[O-])c1)Nc1ccc(Cl)c(C(F)(F)F)c1 | 1120 nM
16 | CON=C1CCC(Cn2ccnc2)(c2ccc(Cl)cc2Cl)CC1 (stereo not given) | 875 nM
17 | Cc1nc(-c2cccc(C(=O)Nc3cnc4ccccc4c3)c2)no1 | 1160 nM
18 | CS(=O)(=O)CCNCc1cccc(-c2cc3c(Nc4ccc(OCc5cccc(F)c5)c(Cl)c4)ncnc3s2)c1 | 198 nM
19 | CCOC(=O)c1ccc(N=C2SC(=Cc3cc(Br)ccc3O)C(=O)N2C)cc1 | 998 nM
20 | CN1CCC(COC(=O)C(O)(c2ccccc2)c2ccccc2)C1 (stereo not given) [TRICLAZATE] | 997 nM

Row | Compound | XC50
21 | CC(C(=O)Nc1ccc(Br)cc1Br)N1CCN(C(=O)c2ccco2)CC1 (stereo not given) | 750 nM
22 | Oc1ccc(CCCNc2nc(NCc3cccc4ccccc34)nc(N3CCNCC3)n2)cc1 | 808 nM
23 | C=CCN1C(=O)C(=Cc2cc(Br)ccc2O)SC1=Nc1ccccc1 | 900 nM
24 | CCOC(=O)c1ccc(-c2cnc(N)c(-c3nc4cccc(C)c4[nH]3)c2)cc1 | 281 nM
25 | FC(F)(F)c1cccc2c(NN=Cc3ccccc3)ccnc12 | 624 nM
26 | COc1ccc(Nc2nc(C)cc(NCc3ccc(-c4c(C)noc4C)cc3)n2)cc1 | 844 nM
27 | CC[C@H]1CN(CCCC(=O)c2ccccc2)CC[C@H]1CCCc1ccnc2ccc(OC(=O)c3ccccc3)cc12 | 832 nM
28 | CCOC(=O)c1ccc(-c2cnoc2-c2cc(CC)c(OC)cc2O)o1 | 275 nM
29 | OCC1CCN(Cc2ccc(-c3ccc(-c4nc5cc(F)ccc5[nH]4)cc3)cc2)CC1 | 845 nM
30 | Cc1ccccc1N1CCN(c2ncc(C(=O)NC3CC3)cc2Cl)CC1 | 628 nM
31 | CCC[C@@H]([C@@H](CC1CCCCC1)C(=O)N[C@H](C(=O)Nc1nccs1)[C@H](C)O)N(O)C=O | 148 nM
32 | COc1cc(OC)c(NC(=O)C2c3ccccc3C(=O)N(C)C2c2cccs2)cc1Cl (stereo not given) | 764 nM
33 | CN(Cc1cccc(C#N)c1)C1CCN(c2cc(NC(=O)c3cccc(F)c3)ccn2)CC1 | 926 nM
34 | O=C1NC(=S)N/C1=C/C=C/c1ccc([N+](=O)[O-])o1 | 1070 nM
35 | Fc1ccc2[nH]c(-c3cccc(-c4cccc(CN5CCN(c6cnccn6)CC5)c4)c3)nc2c1 | 1060 nM
36 | COc1cc(NC(=O)c2sc(-c3ccc(Cl)cc3)cc2NC(=O)CN2CC[C@@H](O)C2)ccc1OCCN1CCCC1 | 802 nM
37 | Cc1cccc2nc(-c3cccc(-c4cccc(NC(=O)c5csnn5)c4)c3)[nH]c12 | 304 nM
38 | CCN(CC)/C(=N/C(=N)NCc1ccc(Cl)cc1)NCCCCCCN/C(=N\C(=N)NCc1ccc(Cl)cc1)N(CC)CC | 231 nM
39 | CC(ON1C(N)=NC(N)=NC1(C)C)c1ccccc1 (stereo not given) | 10.9 nM
40 | COc1ccc2nccc([C@@H](O)CN3CCC(NCc4cc5cccc(O)c5[nH]4)CC3)c2c1 | 836 nM

Reference: ChEMBL document CHEMBL1157539, “Thousands of chemical starting points for antimalarial lead identification” (Nature, 2010)
